Laboratory results as given in US20260216239A1 (Arizona Board of Regents on Behalf of the University of …, priority 2020, published 2026).

Tests used:
[1] = system: Calloselasma rhodostoma venom; experiment: Thrombelastography in human plasma of venom procoagulant activity after isolated exposure of venom to compounds; format: biochemical; conditions: venom exposed to 100 μM carboplatin, 100 μM CORM-2 or both; venom 5 μg/ml in plasma
Method: (§1) Thrombelastographic analyses. The volumes of subsequently described plasmatic and other additives summed to a final volume of 360 μl. Samples were composed of 320 μl of plasma; 16.4 μl of PBS, 20 μl of 200 mM CaCl2), and 3.6 μl of PBS or venom mixture, which were pipetted into a disposable cup in a Thrombelastograph® hemostasis system (Model 5000, Haemonetics Inc., Braintree, MA, USA) at 37° C., and then rapidly mixed by moving the cup up against and then away from the plastic pin five times. The following viscoelastic parameters described previously (see, Nielsen V G (2019) J Thromb Thrombolysis 47, 73-79; Gessner G, et al., (2017) Eur J Pharmacol 815, 33-41; Nielsen V G, Wagner M T, Frank N (2020) Int J Mol Sci 21, 2082; Lazić D, Arsenijević A, Puchta R, Bugarčić ŽD, Rilak A (2016) Dalton Trans 45, 4633; Hanif M, et al., (2017) ChemPlusChem 82, 841-847) were measured: time to maximum rate of thrombus generation (TMRTG): this is the time interval (minutes) observed prior to maximum speed of clot growth; maximum rate of thrombus generation (MRTG): this is the maximum velocity of clot growth observed (dynes/cm^2/second); and total thrombus generation (TTG, dynes/cm^2), the final viscoelastic resistance observed after clot formation.
C. rhodostoma. […] The final concentration of this venom in plasma was 5 μg/ml.
(§2) Given the aforementioned, the experimental conditions utilized were: 1) V condition—venom in PBS; 2) Ru(II) condition—venom exposed to CORM-2; 3) Ru(III) condition—venom exposed to RuCl3; 4) Ru(II+III) condition—venom exposed to CORM-2 and RuCl3 simultaneously. After the 5 minute period at room temperature, 3.6 μl of one of these solutions was added to the plasma sample in the plastic thrombelastograph cup.
(§3) The volumes of subsequently described plasmatic and other additives summed to a final volume of 360 μl. Samples were composed of 320 μl of plasma; 16.4 μl of PBS, 20 μl of 200 mM CaCl2), and 3.6 μl of PBS or venom mixture, which were pipetted into a disposable cup in a Thrombelastograph® hemostasis system (Model 5000, Haemonetics Inc., Braintree, MA, USA) at 37° C., and then rapidly mixed by moving the cup up against and then away from the plastic pin five times. The following viscoelastic parameters described previously (see, Nielsen, V. G. J Thromb Thrombolysis 2019, 47, 73-79; Gessner, G.; et al., Eur J Pharmacol 2017, 815, 33-41; Nielsen, V. G.; Wagner, M. T.; Frank, N. Int J Mol Sci 2020, 21, 2082; Lazid, D.; et al., Dalton Trans 2016, 45, 4633; Hanif, M.; et al., ChemPlusChem 2017, 82, 841-847) were measured: time to maximum rate of thrombus generation (TMRTG): this is the time interval (minutes) observed prior to maximum speed of clot growth; maximum rate of thrombus generation (MRTG): this is the maximum velocity of clot growth observed (dynes/cm2/second); and total thrombus generation (TTG, dynes/cm2), the final viscoelastic resistance observed after clot formation.
C. rhodostoma. […] This venom was also exposed to 0 or 100 μM CORM-2 in the presence of 0 or 100 μM carboplatin in another series of experiments. The final concentration of this venom in plasma was 5 μg/ml.

Bothrops moojeni venom = experiment: as above; format: biochemical; conditions: venom exposed to 100 μM carboplatin, 1 mM CORM-2 or both; venom 2 μg/ml in plasma
Method: as §1
(§4) B. moojeni. This venom was exposed to 0 or 1 mM CORM-2 in the presence of 0 or 100 μM RuCl3 in PBS for at least 5 minutes at room temperature prior to placement into plasma followed immediately with commencement of thrombelastographic analysis. The final concentration of this venom in plasma was 2 μg/ml.
as §2, §3
as §4, with “CORM-2 or CORM-3” for “CORM-2”, “analysis. This venom was also exposed to 0 or 1 mM CORM-2 in the presence of 0 or 100 μM carboplatin in another series of experiments.” for “analysis.”
Given the aforementioned, the experimental conditions utilized were: 1) V condition—venom in PBS; 2) Ru(II) condition—venom exposed to CORM-2 or CORM-3; 3) Ru(III) condition—venom exposed to RuCl3; 4) Ru(II+III) condition—venom exposed to CORM-2 or CORM-3 and RuCl3 simultaneously; 5) Pt(II) condition—venom exposed to carboplatin; and 6) Pt+Ru condition—venom exposed to carboplatin and CORM-2.

Q: Which “procoagulant activity of venom” value [1] does the source give for `N.N.O=C([O-])C1(C(=O)[O-])CCC1.[Pt+2]` [carboplatin, reference compound] here?
A: no significant effect

Q: And the coagulation kinetic parameters (Bothrops moojeni venom)?
A: no significant change in any of the coagulation kinetic parameters
